Laboratory results taken from patent publication US20170157212A1, “CDK MODULATORS AND METHODS FOR THE TREATMENT OF CANCER” (Salk Institute for Biological Studies, priority 2015, published 2017).

Experiments:
[1] = tested on: eIF4G-bound mRNAs in U2OS cells; experiment: RIP-seq of eIF4G-bound mRNAs; format: cell-based, human; details: transcriptional targets excluded
Protocol: All steps were conducted at 4° C. in RNase-free conditions. U20S cells (5×10^6) were transfected with the indicated siRNAs and washed twice with cold PBS. […] Reverse transcription and qRT-PCR for quantitative RNA analysis was carried out as described above.
All steps were conducted at 4° C. in RNase-free conditions. […] Reverse transcription and qRT-PCR for quantitative RNA analysis was carried out as described above.
High throughput sequencing was performed. For detail of analysis, sequenced reads were quality-tested using FASTQC and aligned to the hg19 human genome using the STAR aligner version 2.4.0 k (Dobin et al., Bioinformatics. 2013; 29(1):15-21. doi: 10.1093/bioinformatics/bts635. pmid:23104886). Mapping was carried out using default parameters (up to 10 mismatches per read, and up to 9 multi-mapping locations per read). […] Raw gene expression was quantified across all gene exons (RNA-Seq) or across gene bodies (RIP-Seq), using the top-expressed isoform as proxy for gene expression, and differential gene expression was carried out using the edgeR package version 3.6.8 (Robinson et al. (2010) Bioinformatics, 26, pp. 1) using duplicates to compute within-group dispersion. […]

U2OS cells [2] = details: CDK12 siRNA, 1 μM for 12 hr
Protocol: Top panel: U2OS cells were treated with tBHQ (tert-Butylhydroquinone) 100 μM for 4 h, and cell extracts were analyzed by co-immunoprecipitation with anti-CDK12 antisera for association of CRIF1 or CCNK.

Cdk12 = Cdk12 (Homo sapiens, UniProt Q9NYV4); details: have been shown (prior knowledge); cited from earlier work
Cdk12, sequence (Q9NYV4 whole entry): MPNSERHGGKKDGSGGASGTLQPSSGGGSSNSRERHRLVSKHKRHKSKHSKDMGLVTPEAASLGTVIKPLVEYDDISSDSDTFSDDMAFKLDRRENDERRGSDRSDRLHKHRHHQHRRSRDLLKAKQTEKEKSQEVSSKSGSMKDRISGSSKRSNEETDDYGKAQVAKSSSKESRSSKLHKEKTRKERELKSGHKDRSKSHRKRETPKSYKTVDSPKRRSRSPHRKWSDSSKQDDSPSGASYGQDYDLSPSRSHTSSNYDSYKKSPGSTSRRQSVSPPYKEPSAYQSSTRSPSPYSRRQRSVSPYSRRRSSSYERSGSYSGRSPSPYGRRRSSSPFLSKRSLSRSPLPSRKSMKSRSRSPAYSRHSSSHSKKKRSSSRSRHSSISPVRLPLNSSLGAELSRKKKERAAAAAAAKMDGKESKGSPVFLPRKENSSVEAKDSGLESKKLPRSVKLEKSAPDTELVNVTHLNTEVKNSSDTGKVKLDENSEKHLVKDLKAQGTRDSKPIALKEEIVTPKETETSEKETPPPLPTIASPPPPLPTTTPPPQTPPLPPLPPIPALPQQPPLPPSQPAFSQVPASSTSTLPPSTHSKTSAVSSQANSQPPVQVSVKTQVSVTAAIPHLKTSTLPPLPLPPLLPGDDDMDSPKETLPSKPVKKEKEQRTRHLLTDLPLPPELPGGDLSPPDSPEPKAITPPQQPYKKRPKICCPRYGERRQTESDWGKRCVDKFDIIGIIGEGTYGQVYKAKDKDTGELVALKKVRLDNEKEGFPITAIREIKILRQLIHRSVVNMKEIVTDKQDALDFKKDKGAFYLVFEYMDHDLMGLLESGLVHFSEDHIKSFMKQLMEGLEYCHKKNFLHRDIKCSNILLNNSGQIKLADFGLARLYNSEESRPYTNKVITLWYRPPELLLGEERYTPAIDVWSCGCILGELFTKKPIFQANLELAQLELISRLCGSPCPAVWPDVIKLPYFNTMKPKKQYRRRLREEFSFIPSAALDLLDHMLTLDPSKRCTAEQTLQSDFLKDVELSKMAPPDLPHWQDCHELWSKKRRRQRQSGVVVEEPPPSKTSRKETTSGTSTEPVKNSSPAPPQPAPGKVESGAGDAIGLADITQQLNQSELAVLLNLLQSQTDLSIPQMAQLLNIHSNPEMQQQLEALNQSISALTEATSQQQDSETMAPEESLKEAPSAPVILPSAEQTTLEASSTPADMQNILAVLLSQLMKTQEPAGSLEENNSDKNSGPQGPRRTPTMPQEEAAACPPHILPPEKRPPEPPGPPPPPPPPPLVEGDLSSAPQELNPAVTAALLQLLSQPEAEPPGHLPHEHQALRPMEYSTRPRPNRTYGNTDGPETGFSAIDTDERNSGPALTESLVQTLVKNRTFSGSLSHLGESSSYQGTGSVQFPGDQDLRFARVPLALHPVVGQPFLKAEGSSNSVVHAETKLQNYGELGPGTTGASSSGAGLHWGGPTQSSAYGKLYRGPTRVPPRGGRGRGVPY
Cdk12, sequence (O75909 whole entry partner): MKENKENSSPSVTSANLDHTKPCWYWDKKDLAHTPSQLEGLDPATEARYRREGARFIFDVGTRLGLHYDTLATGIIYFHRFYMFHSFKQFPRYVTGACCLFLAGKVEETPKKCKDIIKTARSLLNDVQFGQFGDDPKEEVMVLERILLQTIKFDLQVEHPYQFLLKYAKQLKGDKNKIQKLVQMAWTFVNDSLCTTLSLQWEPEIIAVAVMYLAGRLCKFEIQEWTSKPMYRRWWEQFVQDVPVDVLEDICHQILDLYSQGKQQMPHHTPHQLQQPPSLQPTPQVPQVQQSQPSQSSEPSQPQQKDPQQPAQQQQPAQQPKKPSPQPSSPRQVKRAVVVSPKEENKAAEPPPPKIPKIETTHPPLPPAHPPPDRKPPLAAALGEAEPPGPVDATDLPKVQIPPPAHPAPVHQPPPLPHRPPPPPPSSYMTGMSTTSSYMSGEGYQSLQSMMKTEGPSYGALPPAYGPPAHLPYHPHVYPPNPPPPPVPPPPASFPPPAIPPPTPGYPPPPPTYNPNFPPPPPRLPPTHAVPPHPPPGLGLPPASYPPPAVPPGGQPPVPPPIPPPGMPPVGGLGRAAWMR

[3] = tested on: CHK1, RPL26, TMA7 gene promoters in U2OS cells; experiment: Chromatin immunoprecipitation (ChIP) at CDK12 target gene promoters; format: cell-based, human; details: 12 hr treatment
Protocol: Briefly, 5×10^6 cells were twice washed with ice-cold PBS and serially cross-linked with 2 mM DSG (Disuccinimidylglutarate) for 20 min and 1% (v/v) formaldehyde for 10 min at room temperature. The cross-linking reaction was stopped by adding glycine to a final concentration of 0.125 M for 10 min at room temperature. Cells were washed twice with cold PBS. […] ChIP DNA is analyzed by SYBR® Green master mixes (Life Technologies) using described primer sets. qPCR is carried out in the ABI7300 (Applied Biosystems) with a 10 min DNA denaturation step at 95° C., followed by 40 cycles of 15 s at 95° C., 60 s at 60° C. […]
ChIP experiments were carried out as described in the previous report. […] ChIP DNA is analyzed by SYBR® Green master mixes (Life Technologies) using described primer sets. qPCR is carried out in the ABI7300 (Applied Biosystems) with a 10 min DNA denaturation step at 95° C., followed by 40 cycles of 15 s at 95° C., 60 s at 60° C. […]

U2OS cells [4] = experiment: Immunoblot of CDK12 substrate phosphorylation under oxidative stress; format: cell-based, human; details: 100 μM for 4 h
Protocol: (§1) FIGS. 7A-7F. […] (F) Oxidative stress activates the CDK12 pathway.
(§2) CDK12 was also recently shown to be essential for NRF2-dependent transcription (Li et al., Sci Rep 6, 21455, 2016). To examine whether CDK12 activity is regulated globally by oxidative stress in human cells, U2OS cells were treated with tBHQ (tert-butylhydroquinone) to induce mitochondrial oxidative stress. […] In contrast, oxidative stress had no effect on the interaction of CCNK with CDK12.

[5] = tested on: CRIF1-CDK12 interaction in U2OS cells; experiment: Co-immunoprecipitation of CRIF1 with CDK12:CCNK under oxidative stress; format: cell-based, human; details: 100 μM for 4 h, reciprocal co-immunoprecipitation
Protocol: as §1, §2

CO[C@H]1C[C@@H]2CC[C@@H](C)[C@@](O)(O2)C(=O)C(=O)N2CCCC[C@H]2C(=O)O[C@H]([C@H](C)C[C@@H]2CC[C@@H](O)[C@H](OC)C2)CC(=O)[C@H](C)/C=C(\C)[C@@H](O)[C@@H](OC)C(=O)[C@H](C)C[C@H](C)/C=C/C=C/C=C/1C [rapamycin]
number of rapamycin-sensitive mRNAs that require mTORC1 to efficiently bind eIF4G [1]: 2,961

O=C(c1cc(Cc2n[nH]c(=O)c3ccccc23)ccc1F)N1CCN(C(=O)C2CC2)CC1 [Olaparib, olaparib]
cell survival with CDK12 depletion (U2OS cells [2]): sensitizes

CN(C)C/C=C/C(=O)Nc1ccc(C(=O)Nc2cccc(Nc3ncc(Cl)c(-c4c[nH]c5ccccc45)n3)c2)cc1 [THZ1]
inhibition of Cdk12 kinase activity (Cdk12): modestly inhibit

CC[C@H](C)[C@@H]1NC(=O)CNC(=O)[C@@H]2Cc3c([nH]c4cc(O)ccc34)[S+]([O-])C[C@@H](NC(=O)CNC1=O)C(=O)N[C@@H](CC(N)=O)C(=O)N1C[C@H](O)C[C@H]1C(=O)N[C@@H]([C@@H](C)[C@@H](O)CO)C(=O)N2 (stereo in doubt) [α-amanitin]
association of eIF4E and 4E-BP1 at the CHK1 promoter [3]: largely abolished
occupancy of RNAPII or CDK12 at the CHK1 promoter [3]: without affecting

CN1CC[C@H](c2c(O)cc(O)c3c(=O)cc(-c4ccccc4Cl)oc23)[C@H](O)C1 [flavopiridol]
inhibition of Cdk12 kinase activity (Cdk12): modestly inhibit

CC(C)(C)c1cc(O)ccc1O [tBHQ, tert-butylhydroquinone]
RNAPII CTD-Ser2 and 4E-BP1 S65, T70 phosphorylation (U2OS cells [4]): global increase
mTORC1-dependent 4E-BP1 T37/46 phosphorylation levels (U2OS cells [4]): only modestly increased
association of CRIF1 with the CDK12:CCNK complex [5]: greatly reduced
